# Reference: US10035989B2, “Method for producing polyunsaturated fatty acids in transgenic plants” (BASF Plant Science GmbH, priority 2004, dated 2018)
# Key:
# [1] = test system: ELO(XI) elongase; test: Expression of ELO(XI) in yeast (feeding, GLC of FAMEs); assay type: cell-based, Xenopus laevis; details: amounts fed: in each case 250 μM
# Experimental: The yeasts were subsequently plated onto complete uracil dropout minimal medium supplemented with 2% glucose.
# Fatty acid methyl esters (FAMEs) were prepared from the yeast cell sediments by acid methanolysis. […] The FAMEs were extracted by twice extracting with petroleum ether (PE). […] (holding).
# Thereafter, the FAMEs were analyzed via GLC.
# [2] = test system: ELO(Ci) elongase; test: Expression of ELO(Ci) in yeast (feeding, GLC of FAMEs); assay type: cell-based, Ciona intestinalis; details: amounts fed: in each case 250 μM
# Experimental: The yeasts were subsequently plated onto complete uracil dropout minimal medium supplemented with 2% glucose. […] Fatty acid methyl esters (FAMEs) were prepared from the yeast cell sediments by acid methanolysis. […] The FAMEs were extracted by twice extracting with petroleum ether (PE). […] (holding). […] Thereafter, the FAMEs were analyzed via GLC.
# [3] = test system: OtDes6.1 (Δ6-desaturase); test: Substrate specificity of the desaturase OtDes6.1 in yeast (feeding, GLC of FAMEs); details: conversion rate of the substrate fed to yeast with pYES2-OtDes6.1; mean (n=3)
# Excerpt: The Saccharomyces cerevisiae strain 334 was transformed by electroporation (1500 v) with the vector pYES2.1-OtDes6.1. A yeast which was transformed with the blank vector pYES2 was used as the control. The transformed yeasts were selected on complete minimal dropout uracil medium (CMdum) agar plates supplemented with 2% glucose. After the selection, in each case three transformants were selected for the further functional expression.
# To express the OtDes6.1 desaturase, precultures of in each case 5 ml of dropout uracil CMdum liquid medium supplemented with 2% (w/v) raffinose were inoculated with the selected transformants and incubated for 2 days at 30° C., 200 rpm. 5 ml of CMdum liquid medium (without uracil) supplemented with 2% raffinose and 300 μm of various fatty acids were then inoculated with the precultures to an OD600 of 0.05. Expression was induced by addition of 2% (w/v) galactose. The cultures were incubated for a further 96 hours at 20° C. […]
# The yeasts which had been transformed with the vector pYES2-OtDes6.1 were cultured in minimal medium in the presence of the fatty acids detailed. […] Thereafter, the FAMEs were analyzed via GLC. […] The activity corresponds to the conversion rate calculated using the formula [substrate/(substrate+product)*100].
compound,measurement,setting,value
"CC/C=C\C/C=C\C/C=C\CCCCCCCC(=O)O [18:3^Δ9,12,15, α-linolenic acid]",Conversion of the starting materials by ELO(XI) in %,[1],3%
same,Conversion of the starting materials by ELO(Ci) in %,[2],25%
same,Activity in %,[3],64.6%
